Counter-ions that a name gives are not always drawn. Like-named read-outs stand apart in the source and are kept apart here.
Tests used:
[1] = target: MELK (Homo sapiens, UniProt Q14680); test: Kinase assay: MELK activity, phosphorylation of FITC-labeled histone H3 peptide measured by IMAP fluorescence polarization; assay type: biochemical
How it was run: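 FP readout: FITC-histone H3 peptide phosphorylation, read 0.5 h (RT) after stopping with 3x volume of IMAP progressive binding solution. Final DMSO 1%.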

[2] = tested on: T47D cells; test: Cell-based assay: anti-proliferative activity, Cell Counting Kit-8, 72 hours (T47D)
How it was run: (§1)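 Cellular growth is read by CCK-8 colorimetric kit 72 h after inhibitor addition to seeded cells, and IC50 values are derived from the resulting data; MELK protein levels in these lines are checked beforehand by immunoblotting whole crude lysate.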

[3] = tested on: A549 cells; test: Cell-based assay: anti-proliferative activity, Cell Counting Kit-8, 72 hours (A549); settings: 72 hours
How it was run: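 A549 cells were seeded in 96-well plates and exposed to candidate inhibitors for 72 hours. Cell growth was then measured with Cell Counting Kit-8, and IC50 values were calculated from the resulting growth data.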

[4] = tested on: HT-1197 cells; test: Cell-based assay: anti-proliferative activity, Cell Counting Kit-8, 72 hours (HT-1197, negative control without MELK expression); settings: HT1197 cells (negative control, no MELK expression), 72 hours
How it was run: as §1

[5] = tested on: 22Rv1 cells; test: Cell-based assay: anti-proliferative activity, Cell Counting Kit-8, 72 hours (22Rv1)
[6] = tested on: DU4475 cells; test: Cell-based assay: anti-proliferative activity, Cell Counting Kit-8, 72 hours (DU4475)
[7] = MELK kinase assay, IMAP fluorescence polarization, 50 micro-M ATP, read-out: IC50 (μM) (kinase assay)
[8] = read-out: IC50 (μM) (kinase assay)

MELK, sequence (Q14680 whole entry, looked up): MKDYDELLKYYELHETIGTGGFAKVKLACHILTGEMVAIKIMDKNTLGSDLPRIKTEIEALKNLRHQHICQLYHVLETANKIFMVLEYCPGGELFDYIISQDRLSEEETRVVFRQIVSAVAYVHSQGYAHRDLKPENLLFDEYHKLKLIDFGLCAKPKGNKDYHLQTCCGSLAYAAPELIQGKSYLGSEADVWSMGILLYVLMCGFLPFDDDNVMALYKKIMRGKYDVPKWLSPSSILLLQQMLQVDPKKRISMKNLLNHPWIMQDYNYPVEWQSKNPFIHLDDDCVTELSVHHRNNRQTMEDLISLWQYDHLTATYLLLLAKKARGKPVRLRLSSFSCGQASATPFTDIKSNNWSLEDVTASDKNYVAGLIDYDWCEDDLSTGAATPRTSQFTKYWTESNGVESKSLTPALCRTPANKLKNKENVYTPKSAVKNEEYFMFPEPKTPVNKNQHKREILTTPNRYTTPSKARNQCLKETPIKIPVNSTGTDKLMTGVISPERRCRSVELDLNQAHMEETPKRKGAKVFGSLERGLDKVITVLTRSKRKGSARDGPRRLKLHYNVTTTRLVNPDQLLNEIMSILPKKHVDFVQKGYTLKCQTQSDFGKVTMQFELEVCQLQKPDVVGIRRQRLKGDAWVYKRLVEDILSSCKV

Row | SMILES | IC50 ([1]; MELK kinase assay, IMAP fluorescence polarization, 50 micro-M ATP, hydrochloride, read-out: IC50 (μM) (kinase assay)) | IC50 ([2]; 72 hours, hydrochloride) | IC50 ([3]; hydrochloride) | IC50 ([4]; hydrochloride) | IC50 ([5]; hydrochloride) | IC50 ([6]; hydrochloride) | IC50 [1, 7] | IC50 ([2]; Homo sapiens, T47D, 72 h) | IC50 ([3]; Homo sapiens, A549, 72 h) | IC50 ([4]; Homo sapiens, HT1197, 72 h) | IC50 ([5]; Homo sapiens, 22Rv1, 72 h) | IC50 ([6]; Homo sapiens, DU-4475, 72 h) | IC50 [1] | IC50 [1, 8] | IC50 ([1]; hydrochloride, read-out: IC50 (μM) (kinase assay))
1 | CC(=O)c1cnc2ccc(-c3cc(Cl)c(O)c(Cl)c3)cc2c1Nc1ccc(N2CCC(N(C)C)C2)nc1 (stereo not drawn) [Example 855, 1-(6-(3,5-dichloro-4-hydroxyphenyl)-4-((6-(3-(dimethylamino)pyrrolidin-1-yl)pyridin-3-yl)amino)quinolin-3-yl)ethanone hydrochloride] | 0.0021 µM | 0.26 µM | 0.38 µM | 73 µM | 0.64 µM | 0.23 µM | – | – | – | – | – | – | – | – | –
2 | CN1CCN(CCc2cccc(Nc3c(C(=O)C4CC4)cnc4ccc(-c5cc(F)c(O)c(Cl)c5)cc34)c2)CC1 [Example 828, (6-(3-chloro-5-fluoro-4-hydroxyphenyl)-4-(3-(2-(4-methylpiperazin-1-yl)ethyl)phenylamino)quinolin-3-yl)(cyclopropyl)methanone] | – | – | – | – | – | – | 0.017 µM | 5.7 µM | 0.23 µM | 9.5 µM | 0.72 µM | 0.16 µM | – | – | –
3 | CNC1CCCN(c2ccc(Nc3c(C(C)=O)cnc4ccc(-c5cc(Cl)c(O)c(Cl)c5)cc34)cn2)C1 (stereo not drawn) [Example 806, 1-(6-(3,5-dichloro-4-hydroxyphenyl)-4-((6-(3-(methylamino)piperidin-1-yl)pyridin-3-yl)amino)quinolin-3-yl)ethanone trihydrochloride] | – | – | – | – | – | – | – | 0.027 µM | 0.054 µM | 0.33 µM | 0.039 µM | 0.032 µM | 0.0012 µM | – | –
4 | CC(=O)c1cnc2ccc(-c3cc(Cl)c(O)c(Cl)c3)cc2c1Nc1cnn(C2CCN(C)C2)c1 (stereo not drawn) [Example 814, 1-(6-(3,5-dichloro-4-hydroxyphenyl)-4-((1-(1-methylpyrrolidin-3-yl)-1H-pyrazol-4-yl)amino)quinolin-3-yl)ethanone dihydrochloride] | – | – | – | – | – | – | 0.0009 µM | 0.14 µM | 0.29 µM | 0.78 µM | 0.13 µM | 0.057 µM | – | – | –
5 | CC(=O)c1cnc2ccc(-c3cc(Cl)c(O)c(Cl)c3)cc2c1N[C@H]1C[C@H](CN(C)C)C1 [Example 784, 1-(6-(3,5-dichloro-4-hydroxyphenyl)-4-((1r,3r)-3-((dimethylamino)methyl)cyclobutylamino)quinolin-3-yl)ethanone] | – | – | – | – | – | – | – | 0.6 µM | 0.74 µM | 3.2 µM | 0.95 µM | 0.2 µM | – | 0.0031 µM | –
6 | CC(=O)c1cnc2ccc(-c3cc(Cl)c(O)c(Cl)c3)cc2c1N[C@H]1CC[C@H](N(C)C)CC1 [Example 765, 1-{6-(3,5-Dichloro-4-hydroxyphenyl)-4-[trans-4-(dimethylamino)cyclohexylamino]quinolin-3-yl}ethanone] | – | – | – | – | – | – | – | 0.081 µM | 0.17 µM | 1.7 µM | 0.14 µM | 0.047 µM | – | 0.0022 µM | –
7 | COc1cc(-c2ccc3ncc(C(C)=O)c(N[C@H]4CC[C@H](CN5CCCC(N)C5)CC4)c3c2)cc(Cl)c1O (stereo partly drawn) [Example 809, 1-(4-(1R,4R)-4-((3-aminopiperidin-1-yl)methyl)cyclohexylamino)-6-(3-chloro-4-hydroxy-5-methoxyphenyl)quinolin-3-yl)ethanone hydrochloride] | – | – | – | – | – | – | – | 4.6 µM | 3.1 µM | 10 µM | 2.6 µM | 10 µM | – | 0.016 µM | –
8 | CC(=O)c1cnc2ccc(-c3cc(Cl)c(O)c(Cl)c3)cc2c1N[C@H]1CC[C@H](N(C)C)CC1 [Example 766, 1-(6-(3,5-dichloro-4-hydroxyphenyl)-4-(trans-4-(dimethylamino)cyclohexylamino)quinolin-3-yl)ethanone hydrochloride] | – | 0.074 µM | 0.14 µM | 1 µM | 0.1 µM | 0.06 µM | – | – | – | – | – | – | – | – | 0.0017 µM
9 | CCC(=O)c1cnc2ccc(-c3cc(F)c(O)c(Cl)c3)cc2c1N[C@H]1CC[C@H](CN2CCCC2)CC1 [Example 846] | – | – | – | – | – | – | 0.0023 µM | 0.096 µM | 0.13 µM | 0.71 µM | 0.16 µM | 0.071 µM | – | – | –

Reference: patent US9120749B2, “Quinoline derivatives and MELK inhibitors containing the same” (ONCOTHERAPY SCIENCE, INC., priority 2010, dated 2015)
